From patent US10968172B2, “USP30 inhibitors” (Mitobridge, Inc., priority 2017, dated 2021)

Target: USP30 (Homo sapiens (Human), UniProt Q70CQ3)
Experiment: In vitro biochemical assay for USP30 enzyme (Ubiquitin-Rhodamine110 cleavage, fluorescence)
Details: 20 nM USP30, 15 min pre-incubation, 100 nM Ub rhodamine substrate, 2 hrs at room temperature
Method: In vitro biochemical assay for USP30 enzyme
The in vitro assay for USP30 evaluates the ability of a test compound to inhibit the activity of the enzyme to cleave ubiquitin from a substrate. Ubiquitin-rhodamine 110 is a quenched, fluorescent substrate for USP30. Cleavage of the amide bond between the C-terminal glycine of ubiquitin and rhodamine results in an increase in rhodamine fluorescence at 535 nm (Exc. 485 nm).
Incubation of the substrate in the presence or absence of USP30 was compared to confirm the deubiquitylating activity of USP30. The USP30 enzyme assay was performed by pre-incubating 20 nM of USP30 with varying concentration of a test compound in the assay buffer [PBS (pH 7.4), 1 mM DTT, 0.01% Tween 20, 0.01% BSA, DMSO final concentration is 1%] for 15 mins at room temperature, following which 100 nM of substrate Ub rhodamine was added and incubated at room temperature for 2 hrs and the plate was read for fluorescence intensity at Ex. 485 nm/535 nm in VICTOR X5 plate reader. The percent inhibition of activity of the enzyme is calculated by comparing counts in the presence and absence of compounds.
Test compounds were screened at various concentrations (10-12 tested concentrations) and dose response curves were generated was generated using GraphPad Prism software Version 7 (San Diego, Calif., USA) with non-linear regression curve fit for sigmoidal dose response (variable slope).

Sequence of USP30 (Q70CQ3 whole entry): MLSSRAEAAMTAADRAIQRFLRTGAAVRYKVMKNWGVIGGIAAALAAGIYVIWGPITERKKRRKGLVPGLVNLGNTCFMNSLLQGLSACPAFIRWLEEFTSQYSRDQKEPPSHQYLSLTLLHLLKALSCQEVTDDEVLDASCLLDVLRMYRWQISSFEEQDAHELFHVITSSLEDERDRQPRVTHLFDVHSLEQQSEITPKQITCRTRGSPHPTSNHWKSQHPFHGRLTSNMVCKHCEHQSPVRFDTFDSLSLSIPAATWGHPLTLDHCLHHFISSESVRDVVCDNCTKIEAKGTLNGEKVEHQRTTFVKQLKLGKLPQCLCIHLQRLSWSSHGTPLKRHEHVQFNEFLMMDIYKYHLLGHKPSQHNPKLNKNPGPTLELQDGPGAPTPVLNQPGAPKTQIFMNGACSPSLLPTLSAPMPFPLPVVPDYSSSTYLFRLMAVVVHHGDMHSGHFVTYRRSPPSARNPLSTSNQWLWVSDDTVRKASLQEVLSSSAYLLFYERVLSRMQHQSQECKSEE

Row | Compound | IC50
1 | CC(C)(C)NS(=O)(=O)c1cccc2c(NC(=O)[C@H](Cc3ccc(F)cc3)NC(=O)c3ccccc3)cccc12 [Compound 7e, (S)-N-(1-((5-(N-(tert-butyl)sulfamoyl)naphthalen-1-yl)amino)-3-(4-fluorophenyl)-1-oxopropan-2-yl)benzamide] | 153 nM
2 | CC(C)(C)NS(=O)(=O)c1ccc(NC(=O)[C@@H](Cc2ccccc2)NC(=O)C2CCCCC2)cc1 [Compound 10d, (R)-N-(1-((4-(N-(tert-butyl)sulfamoyl)phenyl)amino)-1-oxo-3-phenylpropan-2-yl)cyclohexanecarboxamide] | 28 nM
3 | COc1ccc(C[C@H](NC(=O)c2ccc(F)cc2)C(=O)Nc2ccc(S(=O)(=O)NC(C)(C)C)cc2)cc1 [Compound 19f, (S)-N-(1-((4-(N-(tert-butyl)sulfamoyl)phenyl)amino)-3-(4-methoxyphenyl)-1-oxopropan-2-yl)-4-fluorobenzamide] | 22 nM
4 | CC(C)(C)NS(=O)(=O)c1cccc2c(NC(=O)[C@H](Cc3ccccc3)NC(=O)c3ccc(F)cc3)cccc12 [Compound 4j, (S)-N-(1-((5-(N-(tert-butyl)sulfamoyl)naphthalen-1-yl)amino)-1-oxo-3-phenylpropan-2-yl)-4-fluorobenzamide] | 49 nM
5 | CC(C)(C)NS(=O)(=O)c1cccc2c(NC(=O)[C@H](Cc3ccccc3)NC(=O)C3CCCCC3)cccc12 [Compound 4c, (S)-N-(1-((5-(N-(tert-butyl)sulfamoyl)naphthalen-1-yl)amino)-1-oxo-3-phenylpropan-2-yl)cyclohexanecarboxamide] | 125 nM
6 | CC(C)(C)NS(=O)(=O)c1cccc2c(NC(=O)[C@H](Cc3cnc[nH]3)NC(=O)c3ccccc3)cccc12 [Compound 7i, (S)-N-(1-((5-(N-(tert-butyl)sulfamoyl)naphthalen-1-yl)amino)-3-(1H-imidazol-5-yl)-1-oxopropan-2-yl)benzamide] | > 10000 nM
7 | CC(C)(C)NS(=O)(=O)c1cccc2c(NC(=O)[C@H](Cc3ccccc3)NC(=O)c3ccccn3)cccc12 [Compound 4x, (S)-N-(1-((5-(N-(tert-butyl)sulfamoyl)naphthalen-1-yl)amino)-1-oxo-3-phenylpropan-2-yl)picolinamide] | 170 nM
8 | CC(C)(C)NS(=O)(=O)c1cccc2c(NC(=O)[C@@H](Cc3ccccc3)NC(=O)c3ccccc3)cccc12 [Compound 4a, (R)-N-(1-((5-(N-(tert-butyl)sulfamoyl)naphthalen-1-yl)amino)-1-oxo-3-phenylpropan-2-yl)benzamide] | 248 nM
9 | CC(C)(C)NS(=O)(=O)c1cccc2c(NC(=O)[C@H](Cc3ccccc3)NC(=O)c3ccc[nH]3)cccc12 [Compound 4y, (S)-N-(1-((5-(N-(tert-butyl)sulfamoyl)naphthalen-1-yl)amino)-1-oxo-3-phenylpropan-2-yl)-1H-pyrrole-2-carboxamide] | 1900 nM
10 | CC(C)(C)NS(=O)(=O)c1cccc2c(NC(=O)[C@H](Cc3ccccc3)NC(=O)C34CC5CC(CC(C5)C3)C4)cccc12 [Compound 4s] | > 10000 nM
11 | COc1ccc(C[C@H](NC(=O)c2ccccn2)C(=O)Nc2ccc(S(=O)(=O)NC(C)(C)C)cc2)cc1 [Compound 19u, (S)-N-(1-((4-(N-(tert-butyl)sulfamoyl)phenyl)amino)-3-(4-methoxyphenyl)-1-oxopropan-2-yl)picolinamide] | 195 nM
12 | CC(C)(C)NS(=O)(=O)c1ccc(NC(=O)[C@H](Cc2ccccc2)NC(=O)c2ccc(C(=O)O)cc2)cc1 [Compound 10f, (S)-4-((1-((4-(N-(tert-butyl)sulfamoyl)phenyl)amino)-1-oxo-3-phenylpropan-2-yl)carbamoyl)benzoic acid] | > 10000 nM
13 | CC(C)C[C@H](NC(=O)c1ccccc1)C(=O)Nc1cccc2c(S(=O)(=O)NC(C)(C)C)cccc12 [Compound 7a, (S)-N-(1-((5-(N-(tert-butyl)sulfamoyl)naphthalen-1-yl)amino)-4-methyl-1-oxopentan-2-yl)benzamide] | 4300 nM
14 | CC(C)(C)NS(=O)(=O)c1ccc(NC(=O)[C@H](CO)NC(=O)C2CCCCC2)cc1 [Compound 19j, (S)-N-(1-((4-(N-(tert-butyl)sulfamoyl)phenyl)amino)-3-hydroxy-1-oxopropan-2-yl)cyclohexanecarboxamide] | > 10000 nM
15 | CC(C)(C)NS(=O)(=O)c1cccc2c(NC(=O)[C@H](Cc3ccccc3)NC(=O)c3ccc(C#N)cc3)cccc12 [Compound 4r, (S)-N-(1-((5-(N-(tert-butyl)sulfamoyl)naphthalen-1-yl)amino)-1-oxo-3-phenylpropan-2-yl)-4-cyanobenzamide] | 269 nM
16 | CC(C)(C)NS(=O)(=O)c1ccc(NC(=O)[C@H](Cc2ccncc2)NC(=O)c2ccc(F)cc2)cc1 [Compound 19y, (S)-N-(1-((4-(N-(tert-butyl)sulfamoyl)phenyl)amino)-1-oxo-3-(pyridin-4-yl)propan-2-yl)-4-fluorobenzamide] | 20 nM
17 | CC(C)(C)NS(=O)(=O)c1ccc(NC(=O)[C@H](CC2CCCCC2)NC(=O)c2ccccc2F)cc1 [Compound 14f, (S)-N-(1-((4-(N-(tert-butyl)sulfamoyl)phenyl)amino)-3-cyclohexyl-1-oxopropan-2-yl)-2-fluorobenzamide] | 461 nM
18 | Cc1cccc(C(=O)N[C@@H](Cc2ccccc2)C(=O)Nc2cccc3c(S(=O)(=O)NC(C)(C)C)cccc23)n1 [Compound 4m, (S)-N-(1-((5-(N-(tert-butyl)sulfamoyl)naphthalen-1-yl)amino)-1-oxo-3-phenylpropan-2-yl)-6-methylpicolinamide] | > 10000 nM
19 | CC(C)(C)NS(=O)(=O)c1ccc(NC(=O)[C@H](Cc2ccc(-c3ccccc3)cc2)NC(=O)c2ccc(F)cc2)cc1 [Compound 19l, (S)-N-(3-([1,1′-biphenyl]-4-yl)-1-((4-(N-(tert-butyl)sulfamoyl)phenyl)amino)-1-oxopropan-2-yl)-4-fluorobenzamide] | 169 nM
20 | CC(C)(C)NS(=O)(=O)c1cccc2c(NC(=O)[C@H](Cc3ccc(Cl)cc3)NC(=O)c3ccccc3)cccc12 [Compound 7n, (S)-N-(1-((5-(N-(tert-butyl)sulfamoyl)naphthalen-1-yl)amino)-3-(4-chlorophenyl)-1-oxopropan-2-yl)benzamide] | 446 nM
21 | CC(C)(C)NS(=O)(=O)c1ccc(NC(=O)[C@H](CC2CCCCC2)NC(=O)C2CCCC2)cc1 [Compound 14e, (S)-N-(1-((4-(N-(tert-butyl)sulfamoyl)phenyl)amino)-3-cyclohexyl-1-oxopropan-2-yl)cyclopentanecarboxamide] | 120 nM
22 | CC(C)(C)NS(=O)(=O)c1ccc(NC(=O)[C@H](CC2CC2)NC(=O)C2CCCCC2)cc1 [Compound 19c, (S)-N-(1-((4-(N-(tert-butyl)sulfamoyl)phenyl)amino)-3-cyclopropyl-1-oxopropan-2-yl)cyclohexanecarboxamide] | 810 nM
23 | CC(C)(C)NS(=O)(=O)c1cccc2c(NC(=O)[C@H](Cc3ccccc3)NC(=O)c3ncccn3)cccc12 [Compound 4o, (S)-N-(1-((5-(N-(tert-butyl)sulfamoyl)naphthalen-1-yl)amino)-1-oxo-3-phenylpropan-2-yl)pyrimidine-2-carboxamide] | > 10000 nM
24 | CC(C)(C)NS(=O)(=O)c1ccc(NC(=O)[C@H](Cc2cccnc2)NC(=O)c2ccc(F)cc2)cc1 [Compound 19n, (S)-N-(1-((4-(N-(tert-butyl)sulfamoyl)phenyl)amino)-1-oxo-3-(pyridin-3-yl)propan-2-yl)-4-fluorobenzamide] | 16 nM
25 | Cc1ccccc1C[C@H](NC(=O)c1ccccc1)C(=O)Nc1cccc2c(S(=O)(=O)NC(C)(C)C)cccc12 [Compound 7l, (S)-N-(1-((5-(N-(tert-butyl)sulfamoyl)naphthalen-1-yl)amino)-1-oxo-3-(o-tolyl)propan-2-yl)benzamide] | > 10000 nM
26 | CC(C)(C)NS(=O)(=O)c1cccc2c(NC(=O)[C@H](Cc3ccccc3)NC(=O)C3CC3)cccc12 [Compound 4d, (S)-N-(1-((5-(N-(tert-butyl)sulfamoyl)naphthalen-1-yl)amino)-1-oxo-3-phenylpropan-2-yl)cyclopropanecarboxamide] | > 10000 nM
27 | CC(C)(C)NS(=O)(=O)c1cccc2c(NC(=O)[C@H](Cc3ccccc3)NC(=O)Cc3ccccc3)cccc12 [Compound 4e, (S)-N-(5-(N-(tert-butyl)sulfamoyl)naphthalen-1-yl)-3-phenyl-2-(2-phenylacetamido)propanamide] | > 10000 nM
28 | CC(C)(C)NS(=O)(=O)c1ccc(NC(=O)[C@H](CC2CCCCC2)NC(=O)c2ccccn2)cc1 [Compound 14j, (S)-N-(1-((4-(N-(tert-butyl)sulfamoyl)phenyl)amino)-3-cyclohexyl-1-oxopropan-2-yl)picolinamide] | 123 nM
29 | CC(C)(C)NS(=O)(=O)c1ccc(NC(=O)[C@H](Cc2ccccn2)NC(=O)c2ccc(F)cc2)cc1 [Compound 19o, (S)-N-(1-((4-(N-(tert-butyl)sulfamoyl)phenyl)amino)-1-oxo-3-(pyridin-2-yl)propan-2-yl)-4-fluorobenzamide] | 48 nM
30 | CC(C)(C)NS(=O)(=O)c1cccc2c(NC(=O)[C@H](CC3CC3)NC(=O)c3ccccc3)cccc12 [Compound 7h, (S)-N-(1-((5-(N-(tert-butyl)sulfamoyl)naphthalen-1-yl)amino)-3-cyclopropyl-1-oxopropan-2-yl)benzamide] | 2200 nM
